How the values were obtained:
[1] = Chemiluminescence upon reaction with H2O2 in PBS; assay type: physicochemical; conditions: compound 100 μM, H2O2 1 mM, PBS (pH 7.4) (10% DMSO)
Experimental: (§1) All reactions were carried out at room temperature unless stated otherwise. Chemicals and solvents were either A.R. grade or purified by standard techniques. Thin layer chromatography (TLC): silica gel plates Merck 60 F254: compounds were visualized by irradiation with UV light. Column chromatography (FC): silica gel Merck 60 (particle size 0.040-0.063 mm), eluent given in parentheses. Reverse-phase high pressure liquid chromatography (RP-HPLC): C18 5u, 250×4.6 mm, eluent given in parentheses. Preparative RP-HPLC: C18 5u, 250×21 mm, eluent given in parentheses. Fluorescence and chemiluminescence were recorded on Molecular Devices Spectramax i3x.
The respective chemiluminescent kinetic profile is shown in FIG. 1 and the total light emission with [1 mM] or without the presence of H2O2 is shown in FIG. 2.
The chemiluminescent kinetic profile is shown in FIG. 5 and the total light emission with and without the presence of H2O2 is shown in FIG. 6.

[2] = Chemiluminescent emission spectrum in PBS; assay type: physicochemical; conditions: compound 100 μM, PBS (pH 7.4) (10% DMSO)
Experimental: as §1

COC1(c2ccc(/C=C/c3cc[n+](CCCCCC(=O)O)cc3)c(OCc3ccc(B4OC(C)(C)C(C)(C)O4)cc3)c2Cl)OOC12C1CC3CC(C1)CC2C3 (stereo not drawn) [Ia1]
emission maximum ([1]; 37° C.): 660 nm

COC1(c2ccc(/C=C/c3cc[n+]([O-])cc3)c(O)c2Cl)OOC12C1CC3CC(C1)CC2C3 (stereo not drawn) [Ia2]
intensity of emission [2]: visible by the naked eye

COC1(c2ccc(/C=C/c3cccc[n+]3CCCCCC(=O)O)c(OCc3ccc(B4OC(C)(C)C(C)(C)O4)cc3)c2Cl)OOC12C1CC3CC(C1)CC2C3 (stereo not drawn) [Ia3]
emission maximum ([1]; 26° C.): 650 nm

From US20210214607A1, “LONG WAVELENGTH EMITTING CHEMILUMINESCENT PROBES” (NEMIS Technologies AG, priority 2018, published 2021)
